Consider 2 compounds from publication PMC9916658, “Design and Synthesis of New Quinazolin-4-one Derivatives with Negative mGlu7 Receptor Modulation Activity and Antipsychotic-Like Properties” (International Journal of Molecular Sciences, 2023).

A value given as a limit tells only on which side of the number the result lay.

The target of one assay is T1, human mGlu4 receptor (Homo sapiens, UniProt Q14833).
T1 construct: expressed in transfected cells; host or cells: T-REx 293 (tetracycline-inducible)
T1 sequence (Q14833 33-912): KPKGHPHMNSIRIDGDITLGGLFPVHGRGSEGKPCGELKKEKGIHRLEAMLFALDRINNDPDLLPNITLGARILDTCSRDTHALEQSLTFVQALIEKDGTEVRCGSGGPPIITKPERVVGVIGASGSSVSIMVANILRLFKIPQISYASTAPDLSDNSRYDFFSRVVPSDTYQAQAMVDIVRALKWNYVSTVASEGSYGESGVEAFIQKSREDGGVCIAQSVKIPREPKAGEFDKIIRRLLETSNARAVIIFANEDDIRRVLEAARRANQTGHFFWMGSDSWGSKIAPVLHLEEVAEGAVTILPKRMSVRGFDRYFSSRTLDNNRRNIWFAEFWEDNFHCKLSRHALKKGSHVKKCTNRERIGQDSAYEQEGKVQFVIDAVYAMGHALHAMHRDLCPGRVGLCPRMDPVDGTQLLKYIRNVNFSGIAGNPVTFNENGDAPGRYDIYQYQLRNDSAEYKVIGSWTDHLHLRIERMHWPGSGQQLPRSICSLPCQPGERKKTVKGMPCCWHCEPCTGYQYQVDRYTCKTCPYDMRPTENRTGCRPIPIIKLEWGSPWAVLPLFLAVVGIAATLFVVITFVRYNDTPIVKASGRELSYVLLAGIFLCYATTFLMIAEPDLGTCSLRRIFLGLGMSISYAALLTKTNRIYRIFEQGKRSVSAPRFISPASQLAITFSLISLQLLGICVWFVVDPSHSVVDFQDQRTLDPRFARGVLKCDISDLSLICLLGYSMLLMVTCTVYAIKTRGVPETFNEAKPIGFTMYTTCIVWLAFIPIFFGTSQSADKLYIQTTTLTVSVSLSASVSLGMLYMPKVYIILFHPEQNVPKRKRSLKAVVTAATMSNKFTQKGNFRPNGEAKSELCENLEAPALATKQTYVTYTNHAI
Put plainly: mGlu4 receptor selectivity, cAMP accumulation screening at 10 µM. The format is cell-based. The method, then:
The cell lines with the tetracycline-inducible expression of human metabotropic receptors 4, 7, and 8 were described in detail by Chruścicka et al. (mGlu4 receptor NM_000841, mGlu7 receptor NM_000844.2, and mGlu8 receptor NM_000845). Cells were grown under standard cell culture conditions (37 °C, 5% CO2) in DMEM supplemented with 10% tetracycline-free FBS. The expression was induced through the addition of tetracycline to the culture medium at 0.75 μg/mL.
The determination of the intracellular cAMP through homogeneous time-resolved fluorescence (HTRF) was described in detail previously. […] The intracellular concentration of cyclic AMP was measured by means of a cAMP Gi HTRF kit from Cisbio, according to the manufacturer’s instructions. After 1 h of incubation at room temperature, the fluorescence at 620 nm and 665 nm was read (Tecan Infinite M1000). The results were calculated as the 665 nm/620 nm ratio multiplied by 10^4. […] Data were analyzed using GraphPad Prism version 5.04 for Windows (GraphPad Software, San Diego, USA).
Firstly, all compounds were screened at 10 μM using three cell lines expressing the mGlu4/7/8 receptor to evaluate selectivity. […] For compounds that passed the screening procedure, the dose–response curve in the presence of LSP4-2022 in 5 μM was evaluated compared to reference NAM ADX71743. […]

The next assay addresses T2, CYP2B6 (Homo sapiens, UniProt P20813).
T2 construct: purchased BD Biosciences
T2 sequence (P20813 1-491): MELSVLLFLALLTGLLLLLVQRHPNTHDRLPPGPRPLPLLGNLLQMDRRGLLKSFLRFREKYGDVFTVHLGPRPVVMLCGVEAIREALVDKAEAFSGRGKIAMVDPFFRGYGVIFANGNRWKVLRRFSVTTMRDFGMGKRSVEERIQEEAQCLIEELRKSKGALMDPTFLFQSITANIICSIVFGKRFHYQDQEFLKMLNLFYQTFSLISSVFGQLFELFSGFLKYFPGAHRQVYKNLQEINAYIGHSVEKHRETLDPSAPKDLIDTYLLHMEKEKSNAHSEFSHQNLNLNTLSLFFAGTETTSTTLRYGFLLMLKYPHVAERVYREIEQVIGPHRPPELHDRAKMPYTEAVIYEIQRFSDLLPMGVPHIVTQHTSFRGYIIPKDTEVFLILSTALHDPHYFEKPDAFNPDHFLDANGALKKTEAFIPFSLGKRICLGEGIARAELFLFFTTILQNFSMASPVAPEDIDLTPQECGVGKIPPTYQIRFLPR
Put plainly: CYP inhibition assay, recombinant enzyme, fluorescence. The format is in vitro ADME. The settings on record: test concentrations 1.1, 3.3 and 10 μM; read-out: Cytochrome P450 2B6 IC50. The method, then:
(§1) CYP inhibition was performed with the recombinant enzymes CYP1A2, CYP2B6, CYP2C9, CYP2C19, CYP2D6, and CYP3A4 obtained from BD Biosciences. Compounds for CYP inhibition testing were prepared as 10 mM stock solutions in DMSO. Isoform-specific substrates were incubated at 37 °C individually with P450 enzymes (Table 5) and a range of test compound concentrations (1.1, 3.3 and 10 μM) in duplicate. Each isoform was tested separately with one reference compound, a known positive control inhibitor. During preincubation, the 96-well black plates were scanned with a fluorescence plate reader to eliminate false results originating from the autofluorescence of the test compounds. At the end of the incubation, product formation was monitored with fluorescence detection. A decrease in the formation of the metabolite compared to the “no inhibition” control samples was used to calculate the IC50 value.

The next assay concerns the target T3, CYP2C19 (Homo sapiens, UniProt P33261).
T3 construct: purchased BD Biosciences
Described as above. The settings on record: test concentrations 1.1, 3.3 and 10 μM; read-out: Cytochrome P450 2C19 IC50. The format is in vitro ADME. The method, then:
as §1

The next assay deals with T4, CYP2D6 (Homo sapiens, UniProt P10635).
T4 construct: purchased BD Biosciences
T4 sequence (P10635 whole entry): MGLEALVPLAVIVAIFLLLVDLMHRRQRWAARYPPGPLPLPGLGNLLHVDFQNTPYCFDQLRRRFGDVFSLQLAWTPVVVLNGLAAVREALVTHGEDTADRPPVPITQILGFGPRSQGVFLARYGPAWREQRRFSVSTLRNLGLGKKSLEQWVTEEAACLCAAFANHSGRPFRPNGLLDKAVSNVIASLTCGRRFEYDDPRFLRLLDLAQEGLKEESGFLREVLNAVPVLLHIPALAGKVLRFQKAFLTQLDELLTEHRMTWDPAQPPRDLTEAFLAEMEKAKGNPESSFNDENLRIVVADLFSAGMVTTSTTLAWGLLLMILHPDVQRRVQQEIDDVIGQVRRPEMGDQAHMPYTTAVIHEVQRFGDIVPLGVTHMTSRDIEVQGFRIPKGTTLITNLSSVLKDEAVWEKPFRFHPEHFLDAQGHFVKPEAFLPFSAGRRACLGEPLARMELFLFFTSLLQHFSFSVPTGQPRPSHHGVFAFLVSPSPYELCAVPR
The description is as above. The format is in vitro ADME. To be noted: test concentrations 1.1, 3.3 and 10 μM; read-out: Cytochrome P450 2D6 IC50. The method, then:
as §1

The target of assay [1] is T5, recombinant human mGlu7 receptor (Homo sapiens, UniProt Q14831).
T5 construct: expressed in transfected cells; host or cells: T-REx 293 (tetracycline-inducible)
T5 sequence (Q14831 35-915): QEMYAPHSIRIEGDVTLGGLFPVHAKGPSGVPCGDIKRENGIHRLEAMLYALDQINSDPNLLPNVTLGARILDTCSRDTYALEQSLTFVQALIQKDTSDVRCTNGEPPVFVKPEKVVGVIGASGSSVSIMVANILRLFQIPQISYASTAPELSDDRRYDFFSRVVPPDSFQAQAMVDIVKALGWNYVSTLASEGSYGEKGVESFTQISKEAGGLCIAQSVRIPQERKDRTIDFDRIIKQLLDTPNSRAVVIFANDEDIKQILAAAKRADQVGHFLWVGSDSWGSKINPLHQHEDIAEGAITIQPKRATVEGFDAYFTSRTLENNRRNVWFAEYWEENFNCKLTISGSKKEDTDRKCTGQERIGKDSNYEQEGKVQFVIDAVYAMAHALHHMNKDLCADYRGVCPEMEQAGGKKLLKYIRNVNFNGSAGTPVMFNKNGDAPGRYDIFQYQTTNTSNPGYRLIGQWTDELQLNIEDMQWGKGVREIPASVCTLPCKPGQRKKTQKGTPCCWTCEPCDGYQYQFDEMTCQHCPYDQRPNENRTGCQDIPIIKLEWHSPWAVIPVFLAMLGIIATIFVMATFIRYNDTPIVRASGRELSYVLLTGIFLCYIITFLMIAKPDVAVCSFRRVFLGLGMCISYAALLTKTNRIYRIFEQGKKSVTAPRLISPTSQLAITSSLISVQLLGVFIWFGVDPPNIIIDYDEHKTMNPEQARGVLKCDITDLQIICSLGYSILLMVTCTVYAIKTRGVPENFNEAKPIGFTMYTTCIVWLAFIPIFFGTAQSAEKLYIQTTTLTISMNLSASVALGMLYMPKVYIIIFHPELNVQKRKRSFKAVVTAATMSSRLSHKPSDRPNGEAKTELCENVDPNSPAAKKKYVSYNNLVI
The experiment in a line: NAM mGlu7 activity, forskolin-induced cAMP (HTRF) in T-REx 293 cell line. It counts as cell-based. To be noted: T-REx 293 cells expressing human mGlu7; 5 µM LSP4-2022 (EC80), 5 µM forskolin. In general terms: In TR-FRET formats the signal depends on donor and acceptor labels being close together.

T3 sequence (P33261 whole entry): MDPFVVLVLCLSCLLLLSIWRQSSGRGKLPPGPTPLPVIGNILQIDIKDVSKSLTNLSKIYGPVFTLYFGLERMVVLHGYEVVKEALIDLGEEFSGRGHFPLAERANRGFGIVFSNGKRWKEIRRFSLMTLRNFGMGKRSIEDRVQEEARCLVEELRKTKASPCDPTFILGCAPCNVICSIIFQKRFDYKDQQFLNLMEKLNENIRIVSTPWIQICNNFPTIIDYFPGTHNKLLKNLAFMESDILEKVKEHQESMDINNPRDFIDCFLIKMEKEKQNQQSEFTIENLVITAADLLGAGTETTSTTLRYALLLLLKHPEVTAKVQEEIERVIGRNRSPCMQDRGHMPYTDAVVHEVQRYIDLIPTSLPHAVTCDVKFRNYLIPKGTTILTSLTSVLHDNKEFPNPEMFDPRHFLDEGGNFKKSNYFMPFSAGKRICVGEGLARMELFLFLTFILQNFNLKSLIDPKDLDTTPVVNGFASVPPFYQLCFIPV

Turning to `Cn1c(-c2ccccc2Cl)nc2ccc(-c3ccccc3)cc2c1=O` [ALX-065, 2-(2-chlorophenyl)-3-methyl-6-phenylquinazolin-4(3H)-one], the “mGlu4 NAM activity” value on human mGlu4 receptor (at 10 µM) is given as 19.6%. For the same compound, the IC50 on CYP2B6 is above 10 µM; on CYP2C19, 1.1 to 3.3 µM; at CYP2D6, above 10 µM; in assay [1], 4.65 ± 3.46 µM.

For the compound `COc1cccc(-c2ccc3nc(-c4ccccc4Cl)n(C)c(=O)c3c2)c1OC` [ALX-171, 2-(2-chlorophenyl)-6-(2,3-dimethoxyphenyl)-3-methylquinazolin-4(3H)-one], the “selectivity over mGlu4” value on human mGlu4 receptor (group III mGlu receptors) was “selective”. Further, the IC50 on CYP2B6 is above 10 µM; at CYP2C19, 3.3 to 10 µM; on CYP2D6 it was above 10 µM; in assay [1], 6.14 ± 3.42 µM.

As usually defined, the IC50 is the concentration that inhibits the measured activity by half.
